{"source": "patent US20240165164A1", "about": "“STEM CELLS FOR USE IN REDUCING THE IMMUNE RESPONSE FOLLOWING ORGAN TRANSPLANTATION” (Amniotics AB, priority 2021, published 2024)", "key": {"[1]": {"test_system": "human Peripheral Blood Mononuclear Cells (PBMCs)", "assay": "PBMC co-culture: cell composition after 24 hours of activation (FACS analysis)", "method": "(§1) Freshly isolated human PBMCs, pooled from three donors, were activated with anti-CD3/anti-CD28 at 10 μg/ml and 5 μg/ml respectively in presence of MSCs ex vivo for 24 or 72 hours. Following activation, cells were analysed for effects on cellular composition after 24 hours and for effects on cellular composition and cell proliferation using CFSE after 72 hours. In addition, supernatants collected after 24 hours of activation were analysed for cytokine levels using Luminex.\n(§2) Peripheral Blood Mononuclear Cells (PBMCs) were isolated from leucocyte concentrate from three different donors (acquired from Blodcentralen, Lunds Universitetssjukhus, Lund, Sweden) through gradient centrifugation at 400×g for 40 minutes using Ficoll. Red blood cells (RBCs) were lysed using BD Pharmlyse buffer 10× diluted in milliQ water for 3 minutes at room temperature (RT). Cells were washed and the isolated PBMCs were pooled. Cell concentration was determined using a Scepter cell counter (Millipore Merck, MA. USA). Cells were diluted to 1×10^7 cells/ml in PBS. Pooled PBMCs were split into 2 different tubes. Cells in tube 1 was stained with CFSE at 5 µM for 5 minutes (dark, RT). CFSE stained cells were washed with an equal volume of FBS to stop the reaction and washed again with PBS. Cells in tube two was left in PBS.\n(§3) MSCs (donor 1, donor 2, donor 3, and AD-MSC control cells) were provided in 8 different tubes, two for each cell type (in different medias (M3 and M4). All cells (PBMCs and MSCs) were diluted in the two different cell culture media (M3 and M4) to a final concentration of 2*10^6 cells/ml. Media was supplemented with anti-CD28 at 5 μg/ml. Cells were added to anti-CD3 (1 μg/well, 100 μl/well) coated U bottom cell culture plates according to the layout below, 200 μl/well in different PBMC:MSC ratios (1:10, 1:5, 1:2.5, 1:0 and 0:1) with a total amount of cells at 4*10^5 cells/well.\n(§4) When plating controls, cells were spun down and diluted in M3 or M4 at 4*10^6 cells/ml, with a total amount of cells at 4*10^5 cells/well. 100 μl PBMCs were added per well. […] Medium was added to unstimulated control wells (700 μl/well). Cells were incubated for 24 or 72 hours at 37° C., 5% CO2. See also FIG. 28.\nFollowing 24 hours of incubation, cells in FACS/Luminex plates were stained with antibodies detecting CD73, CD4, CD8, CD80, CD206, CD163 and PD-1 in staining buffer (PBS supplemented with 1% BSA). Briefly, cells were transferred to V bottom plates and centrifuged at 360×g for 2 min. Supernatant was transferred to a storage plate and put in −20° C. until analysis using Luminex. Cells were washed in PBS, centrifuged at 360×g for 2 min at 4° C. Supernatant was flicked off and antibodies against surface markers were added. Cells were incubated at +4° C. for 20 minutes (dark). After incubation, cells were washed 1× in PBS, centrifuged at 360×g for 2 min at 4° C. Cells were resuspended in PBS and acquired using the Attune Nxt flow cytometer. Compensation was performed using beads—AbC Total Compensation capture beads and negative beads. Since compensation was done using beads, FSC and SSC were changed before analysing samples and adjusted to cells. Lasers were not changed after compensation. 150 μl was analysed from each sample."}, "[2]": {"test_system": "human Peripheral Blood Mononuclear Cells (PBMCs)", "assay": "PBMC co-culture: cytokine analysis after 24 hours of activation (Luminex)", "assay_type": "cell-based", "method": "100 μl PBMCs were added per well. […] See also FIG. 28.\nSupernatant (24 hours incubation) was analysed for cytokines using the 12-plex LXSAHM-12 Luminex kit. All reagents, standard and samples were prepared at room temperature and according to manufacturer's instruction. Briefly, 50 μl of standard or sample was added to wells. Microparticles were added to samples and standard and samples were incubated for 2 hours at room temperature on a horizontal orbital shaker (800 rpm). Plate was washed 3× in washing buffer using a magnetic plate. Biotin-antibody was added and incubated dark for 1 hour at room temperature on a horizontal orbital shaker (800 rpm). Plate was washed 3× in washing buffer using a magnetic plate. Streptavidin-PE was added to each well and incubated dark at room temperature on a horizontal orbital shaker (800 rpm) for 30 minutes. Plate was washed 3× in washing buffer using a magnetic plate. Microparticles were resuspended in 100 μl washing buffer, incubated for 2 minutes on a horizontal orbital shaker (800 rpm). Samples were analysed on a Bio-Rad Luminex analyzer."}, "[3]": {"test_system": "human Peripheral Blood Mononuclear Cells (PBMCs)", "assay": "PBMC co-culture: proliferation and cell composition after 72 hours of activation (FACS analysis after CFSE labeling)", "method": "as §1, §2, §3, §4\nAfter 72 hours of incubation, CFSE stained cells were stained with CD4, CD8, CD80, CD206 and CD163 in staining buffer. Briefly, cells were transferred to V bottom plates, centrifuged at 360×g for 2 min. Cells were washed in PBS, centrifuged at 360×g for 2 min at 4° C. Supernatant was flicked off and surface markers were added. Cells were incubated at +4° C. for 20 minutes. After incubation, cells were washed 1× in PBS, centrifuged at 360×g for 2 min at 4° C. Cells were resuspended in PBS and acquired using the Attune Nxt flow cytometer. Compensation was performed using beads—AbC Total Compensation capture beads and negative beads for surface markers. For CFSE compensation, newly CFSE stained cells were used. Since compensation was done using both beads and cells, FSC and SSC were changed and adjusted to beads or cells. Lasers were not changed after compensation.\nGraphs were performed using Prism 8 for Mac OS X (GraphPad Software, San Diego, CA, USA). Results are presented as mean values±SEM, if not otherwise stated. Dot plots were acquired from analysis using FlowJo v10.6.1 for Mac (BD, New Jersey, USA). The inhibitory effect of MSCs on PBMC proliferation was calculated according to the two formulas below: […]"}, "[4]": {"details": "CsA 10 μg/ml, Prednisolone 125 nM"}, "[5]": {"details": "stimulated PBMCs, media 3, MSCs at all ratios, CsA 10 μg/ml, Prednisolone 125 nM"}}, "data": [{"smiles": "C[C@]12C=CC(=O)C=C1CC[C@@H]1[C@@H]2[C@@H](O)C[C@@]2(C)[C@H]1CC[C@]2(O)C(=O)CO", "note": "[Prednisolone]", "values": [{"measurement": "M2 macrophage expression", "setting": "[1]; [4]", "value": "no effect"}, {"measurement": "T cell activation", "setting": "[1]; [4]", "value": "only slightly inhibits"}, {"measurement": "expression level of M1 macrophages", "setting": "[1]; [4]", "value": "no effect"}, {"measurement": "macrophage cell composition", "setting": "[1]; Prednisolone 125 nM", "value": "did not have an effect"}, {"measurement": "T helper cells (% CD4+ lymphocytes or MFI of CD4+ lymphocytes)", "setting": "[1]; aCD3/aCD28 activated PBMCs, media 3, unsorted MSCs at PBMC:MSC 1:2.5, 1:5, 1:10, Prednisolone 125 nM, vs control", "value": "higher levels"}, {"measurement": "the other analysed cytokines, levels in supernatant", "setting": "[2]; 12-plex cytokines not listed as inhibited", "value": "No inhibitory effect"}, {"measurement": "IL-6 levels in supernatant", "setting": "[2]; [4]", "value": "inhibits"}, {"measurement": "IL12/IL23p40 levels in supernatant", "setting": "[2]; [5]", "value": "inhibits"}, {"measurement": "TNF-α levels in supernatant", "setting": "[2]; [5]", "value": "inhibits"}, {"measurement": "HGF levels in supernatant", "setting": "[2]; stimulated PBMCs, media 3, PBMC:MSC 1:2.5, 1:5, 1:10, CsA 10 μg/ml, Prednisolone 125 nM", "value": "inhibits"}, {"measurement": "M1 expression levels", "setting": "[3]; 72 hours", "value": "no effect"}, {"measurement": "M1 proliferation (CFSE)", "setting": "[3]; 72 hours", "value": "No effect"}, {"measurement": "M2 expression levels", "setting": "[3]; 72 hours", "value": "no effect"}, {"measurement": "M2 proliferation (CFSE)", "setting": "[3]; 72 hours", "value": "No effect"}, {"measurement": "T helper cells (% CD4+ among T cells)", "setting": "[3]; 72 hours of incubation, unsorted MSCs co-culture, CsA 10 μg/ml, Prednisolone 125 nM", "value": "no effect"}]}]}
